Assays:
[1] = biological target: T1, glucosylceramide synthase (GCS) (Homo sapiens, UniProt Q16739); test: GCS enzyme inhibition assay (A549 cell lysate, NBD C6-ceramide, HPLC fluorescence); assay type: biochemical; conditions: inhibitory activity against GCS, 37° C., 90 minutes
T1 construct: The obtained supernatant was used; host or cells: A549 cells (lysate supernatant after sonication)
T1 sequence (Q16739 1-394): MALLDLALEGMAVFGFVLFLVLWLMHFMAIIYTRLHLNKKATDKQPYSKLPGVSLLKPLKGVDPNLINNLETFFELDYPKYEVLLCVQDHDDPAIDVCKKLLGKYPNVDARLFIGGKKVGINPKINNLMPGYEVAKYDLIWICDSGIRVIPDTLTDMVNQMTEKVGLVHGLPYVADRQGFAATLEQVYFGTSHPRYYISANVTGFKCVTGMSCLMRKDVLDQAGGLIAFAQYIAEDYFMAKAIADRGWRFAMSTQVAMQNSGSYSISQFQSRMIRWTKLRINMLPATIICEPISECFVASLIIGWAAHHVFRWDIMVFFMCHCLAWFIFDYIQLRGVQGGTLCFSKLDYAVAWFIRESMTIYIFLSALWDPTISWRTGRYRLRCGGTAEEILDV
Outline: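 Percent GCS activity was derived from the GlcCer share of Cer plus GlcCer areas, scaled from ibiglustat (0%) to DMSO (100%). Enzyme came from sonicated A549 lysate in 50 mM HEPES pH 7.3; 90 min incubation at 37° C, chloroform/methanol stop and extraction.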

[2] = test system: GM1 production in Jurkat cells; test: cells; assay type: cell-based; conditions: Homo sapiens, Jurkat, 72 h

COc1cc2c(cc1-c1cccc(Cl)c1)OCC(C)(C)C2NC(=O)O[C@@H]1CN2CCC1CC2 (stereo partly drawn) [Example 351, (S)-quinuclidin-3-yl (7-(3-chlorophenyl)-6-methoxy-3,3-dimethylchroman-4-yl)carbamate]
IC50 [1]: 0.45 nM
IC50 [2]: 1.7 nM

CCc1cccc(-c2cc3c(cc2OC)C(NC(=O)O[C@@H]2CN4CCC2CC4)C(C)(C)CO3)c1 (stereo partly drawn) [Example 352, (S)-quinuclidin-3-yl (7-(3-ethylphenyl)-6-methoxy-3,3-dimethylchroman-4-yl)carbamate]
IC50 [1]: 0.38 nM
IC50 [2]: 2 nM

CCc1ccc(-c2cc3c(cc2OC)C(NC(=O)O[C@@H]2CN4CCC2CC4)C(C)(C)CO3)cc1 (stereo partly drawn) [Example 353, (S)-quinuclidin-3-yl (7-(4-ethylphenyl)-6-methoxy-3,3-dimethylchroman-4-yl)carbamate]
IC50 [1]: 0.33 nM
IC50 [2]: 2.3 nM

COc1cccc(-c2cc3c(cc2OC)C(NC(=O)O[C@@H]2CN4CCC2CC4)C(C)(C)CO3)c1 (stereo partly drawn) [Example 354, (S)-quinuclidin-3-yl (6-methoxy-7-(3-methoxyphenyl)-3,3-dimethylchroman-4-yl)carbamate]
IC50 [1]: 0.63 nM
IC50 [2]: 3.1 nM

COc1ccc(-c2cc3c(cc2OC)C(NC(=O)O[C@@H]2CN4CCC2CC4)C(C)(C)CO3)cc1 (stereo partly drawn) [Example 355, (S)-quinuclidin-3-yl (6-methoxy-7-(4-methoxyphenyl)-3,3-dimethylchroman-4-yl)carbamate]
IC50 [1]: 0.58 nM
IC50 [2]: 5.8 nM

CCOc1ccc(-c2cc3c(cc2OC)C(NC(=O)O[C@@H]2CN4CCC2CC4)C(C)(C)CO3)cc1 (stereo partly drawn) [Example 356, (S)-quinuclidin-3-yl (7-(4-ethoxyphenyl)-6-methoxy-3,3-dimethylchroman-4-yl)carbamate]
IC50 [1]: 0.48 nM
IC50 [2]: 3.4 nM

COc1cc2c(cc1-c1ccsc1)OCC(C)(C)C2NC(=O)O[C@@H]1CN2CCC1CC2 (stereo partly drawn) [Example 357, (S)-quinuclidin-3-yl (6-methoxy-3,3-dimethyl-7-(thiophen-3-yl)chroman-4-yl)carbamate]
IC50 [1]: 0.45 nM
IC50 [2]: 4 nM

COc1cc2c(cc1-c1cccc(C(C)C)c1)OCC(C)(C)C2NC(=O)O[C@@H]1CN2CCC1CC2 (stereo partly drawn) [Example 358, (S)-quinuclidin-3-yl (7-(3-isopropylphenyl)-6-methoxy-3,3-dimethylchroman-4-yl)carbamate]
IC50 [1]: 0.61 nM
IC50 [2]: 2 nM

COc1ccc(Cl)c(-c2cc3c(cc2OC)C(NC(=O)O[C@@H]2CN4CCC2CC4)C(C)(C)CO3)c1 (stereo partly drawn) [Example 359, (S)-quinuclidin-3-yl (7-(2-chloro-5-methoxyphenyl)-6-methoxy-3,3-dimethylchroman-4-yl)carbamate]
IC50 [1]: 0.62 nM
IC50 [2]: 2.4 nM

COc1ccc(-c2cc3c(cc2OC)C(NC(=O)O[C@@H]2CN4CCC2CC4)C(C)(C)CO3)c(F)c1 (stereo partly drawn) [Example 360, (S)-quinuclidin-3-yl (7-(2-fluoro-4-methoxyphenyl)-6-methoxy-3,3-dimethylchroman-4-yl)carbamate]
IC50 [1]: 0.55 nM
IC50 [2]: 10 nM

COc1ccc(-c2cc3c(cc2OC)C(NC(=O)O[C@@H]2CN4CCC2CC4)C(C)(C)CO3)c(C)c1 (stereo partly drawn) [Example 361, (S)-quinuclidin-3-yl (6-methoxy-7-(4-methoxy-2-methylphenyl)-3,3-dimethylchroman-4-yl)carbamate]
IC50 [1]: 0.99 nM
IC50 [2]: 8.5 nM

CCCCc1ccc(-c2cc3c(cc2OC)C(NC(=O)O[C@@H]2CN4CCC2CC4)C(C)(C)CO3)cc1 (stereo partly drawn) [Example 362, (S)-quinuclidin-3-yl (7-(4-butylphenyl)-6-methoxy-3,3-dimethylchroman-4-yl)carbamate]
IC50 [1]: 0.11 nM
IC50 [2]: 0.7 nM

COc1cc2c(cc1-c1ccc(OC(C)C)c(Cl)c1)OCC(C)(C)C2NC(=O)O[C@@H]1CN2CCC1CC2 (stereo partly drawn) [Example 363, (S)-quinuclidin-3-yl (7-(3-chloro-4-isopropoxyphenyl)-6-methoxy-3,3-dimethylchroman-4-yl)carbamate]
IC50 [1]: 0.75 nM
IC50 [2]: 8.7 nM

COc1cc2c(cc1-c1ccc(C(C)(C)C)cc1)OCC(C)(C)C2NC(=O)O[C@@H]1CN2CCC1CC2 (stereo partly drawn) [Example 364, (S)-quinuclidin-3-yl (7-(4-(tert-butyl)phenyl)-6-methoxy-3,3-dimethylchroman-4-yl)carbamate]
IC50 [1]: 0.43 nM
IC50 [2]: 2 nM

COc1cc2c(cc1-c1cc(C)c(OC)c(C)c1)OCC(C)(C)C2NC(=O)O[C@@H]1CN2CCC1CC2 (stereo partly drawn) [Example 365, (S)-quinuclidin-3-yl (6-methoxy-7-(4-methoxy-3,5-dimethylphenyl)-3,3-dimethylchroman-4-yl)carbamate]
IC50 [1]: 1.2 nM
IC50 [2]: 14.5 nM

COc1cc2c(cc1-c1ccc(OCC(C)C)cc1)OCC(C)(C)C2NC(=O)O[C@@H]1CN2CCC1CC2 (stereo partly drawn) [Example 366, (S)-quinuclidin-3-yl (7-(4-isobutoxyphenyl)-6-methoxy-3,3-dimethylchroman-4-yl)carbamate]
IC50 [1]: 0.19 nM
IC50 [2]: 0.7 nM

COc1cc2c(cc1-c1ccc(OC(C)C)nc1)OCC(C)(C)C2NC(=O)O[C@@H]1CN2CCC1CC2 (stereo partly drawn) [Example 367, (S)-quinuclidin-3-yl (7-(6-isopropoxypyridin-3-yl)-6-methoxy-3,3-dimethylchroman-4-yl)carbamate]
IC50 [1]: 0.22 nM
IC50 [2]: 3.2 nM
